# Measurements from paper PMC10962963 (Proceedings of the National Academy of Sciences of the …, 2024).
# T1: polycystin-2 (PC2, TRPP2), PC2_F604P (Homo sapiens, UniProt Q13563, F604P)
# T1 sequence (Q13563 185-719 F604P): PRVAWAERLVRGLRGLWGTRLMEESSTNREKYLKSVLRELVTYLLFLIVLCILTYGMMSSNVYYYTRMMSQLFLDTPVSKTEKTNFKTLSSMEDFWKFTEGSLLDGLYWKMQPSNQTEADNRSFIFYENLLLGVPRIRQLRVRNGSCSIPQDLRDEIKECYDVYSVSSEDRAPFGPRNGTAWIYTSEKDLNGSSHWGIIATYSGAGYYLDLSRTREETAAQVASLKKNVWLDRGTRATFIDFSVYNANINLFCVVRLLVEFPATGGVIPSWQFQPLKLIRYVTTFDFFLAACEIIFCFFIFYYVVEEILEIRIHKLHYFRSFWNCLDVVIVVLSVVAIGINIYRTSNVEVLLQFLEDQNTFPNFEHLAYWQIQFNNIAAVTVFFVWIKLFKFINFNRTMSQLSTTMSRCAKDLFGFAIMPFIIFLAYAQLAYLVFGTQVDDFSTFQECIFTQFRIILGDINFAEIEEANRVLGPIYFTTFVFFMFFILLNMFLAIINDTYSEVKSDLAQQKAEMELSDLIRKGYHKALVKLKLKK
# B1: truncated PC2_F604P protein containing the fragment Pro185-Lys719 (domain or fragment, human, UniProt Q13563 185-719, looked up)
# chain: T1 sequence (Q13563 185-719 F604P)
# Tests used:
# [1] = target: T1, polycystin-2 (PC2, TRPP2), PC2_F604P; test: cryo-EM structure; format: cell-based
# [2] = target: the molecule itself; test: cryo-EM structure
Molecule,EC50 [1] [µM],binding result [2]
CC1CC(C)(C)N(C(=O)CN2C(=O)c3ccccc3C2=O)c2ccccc21 (centres unmarked) [ML-SA1],5.2,
B1,,binds
